In assay [1] the test system is surface ulcers of Koi (multiple antibiotic-resistant pathogenic species). The experiment in a line: Immersion bath treatment of Koi suffering from surface ulcers. It is filed as in vivo, Koi (Cyprinus carpio). The conditions noted are these: antibiotic injected directly into the fish, before the bath treatment. The protocol:
An immersion treatment of the infected animals of 5 to 10 minutes on alternate days over a six day period promoted healing of most ulcers.
All of the treated fish had previously been given injections of Azactam, Baytril, and Amikacin. […] Among the species of bacteria found in the ulcers of the fish were representatives of the genera Aeromonas, Proteus, Klebsiella, Staphylococcus, Streptococcus, Enterobacter and Flavobacterium.
All fish were housed in a communal “hospital tank” before treatment and moved to an isolation tank after each treatment. The temperature of the bath was adjusted to that of the hospital tank temperature, 24 C, and adequate aeration was supplied to the treatment tank. Eight of the fish had external ulcers of various dimensions. Two of the fish were dropsied.

Assay [2] has as its system Aeromonas caviae. The experiment in a line: MIC and FIC of EDTA and neomycin, Aeromonas isolated from ulcerated fish. It is filed as cell-based. Conditions: A. caviae; EDTA in 50 mM Tris. The protocol:
(§1) This example describes a method for determining the FIC values set forth in Example 4. […] Agents and Chem. pp. 210-217 (1967); and Sparks et al., Vet. Res. Comm. 18:241-249 (1994). Each of the foregoing publications are incorporated herein by reference. […] Then 0.05 ml of an 18-hour old culture of a test organism, containing […] colony-forming units (CFU) ml, were added to each well. Controls for the culture and media were included in each plate. Plates were covered and incubated at 37° C. for 18-24 hours. A numerical score or Fractional Inhibitory Concentration (FIC) index was determined. The FIC index is equal to the sum of the values of FIC for the individual drugs: An FIC index greater than 1.0 indicated an antagonistic interaction, an FIC index of 1.0 indicated addition, and an FIC index of less than or equal to 0.5 indicated synergism between the two test agents.

In assay [3] the test system is Aeromonas sobria. Described as above. The conditions noted are these: A. sobria; EDTA in 50 mM Tris. It is filed as cell-based. The protocol: as §1
Assay [4] relates to Staphylococcus aureus. The experiment in a line: MIC/MBC microtiter dilution and checkerboard of EDTA-Tris and neomycin. It is filed as cell-based. The protocol:
(§2) This example describes a method for determining the FIC values set forth in Example 4. […] Agents and Chem. pp. 210-217 (1967); and Sparks et al., Vet. Res. Comm. 18:241-249 (1994). Each of the foregoing publications are incorporated herein by reference.
(§3) Then 0.05 ml of an 18-hour old culture of a test organism, containing […] colony-forming units (CFU) ml, were added to each well. Controls for the culture and media were included in each plate. Plates were covered and incubated at 37° C. for 18-24 hours.
(§4) To generate isobolograms, FICs of the two test solutions were plotted individually on the x-axis and y-axis to determine the effect of combining the two test solutions on bacterial growth. A line that curves away from the zero point and the coordinates indicated antagonism. […] Goodman and Gilman, pp. 1085-1086 (Macmillan Publishing Co., New York, 1985); Sabath, L. D., Antimicrob. Agents and Chem. pp. 210-217 (1967) and incorporated herein by reference in their entireties.
(§5) 307 (pub: Am. Soc. Microbiol. Williams and Wilkins, Baltimore 1970), incorporated herein by reference in its entirety.

Assay [5] has as its system Enterococcus faecalis. The description is as above. It is filed as cell-based. The protocol:
as §2, §3, §4, §5

For assay [6], the system named is Pseudomonas aeruginosa. The description is as above. It is filed as cell-based. The protocol:
as §2, §3, §4, §5

In assay [7] the test system is Pseudomonas aeruginosa isolated from burn patients. The experiment in a line: Antibiotic resistance profile, disc diffusion method. Note: key: R = resistant; I = intermediate; S = sensitive. It is filed as cell-based. Conditions: P. aeruginosa. For orientation: Agar diffusion results depend on both activity and mobility in agar.
In assay [8] the test system is Enterococcus faecalis isolated from burn patients. The description is as above. Conditions: E. faecalis. It is filed as cell-based. Note: key: R = resistant; I = intermediate; S = sensitive.
The test system of assay [9] is Staphylococcus aureus isolated from burn patients. The assay is described as above. It is filed as cell-based. The conditions noted are these: S. aureus. Note: key: R = resistant; I = intermediate; S = sensitive.
For assay [10], the system named is Staphylococcus aureus isolated from a human burn patient. The experiment in a line: MIC and MBC of Tris, EDTA, cocamidopropyl betaine and silver combinations. It is filed as cell-based. Conditions: S. aureus (human burn isolate); multiple of the 1x stock solution of the tested composition.
The test system of assay [11] is Malassezia pachydermatis. The experiment in a line: MIC and MBC, isolates from dogs with otitis externa and pyoderma. It is filed as cell-based. The conditions noted are these: M. pachydermatis; multiple of the 1x stock solution of the tested composition. The protocol:
(§6) The formulation was tested against Pseudomonas aeruginosa, Proteus mirabilis, Escherichia coli, Staphylococcus intermedius, Malessezia pachydermatis, and Candida albicans.

Assay [12] has as its system Candida albicans. The description is as above. It is filed as cell-based. Conditions: C. albicans; multiple of the 1x stock solution of the tested composition. The protocol: as §6
Assay [13] concerns Escherichia coli isolated from a dog with otitis externa. The description is as above. It is filed as cell-based. The conditions noted are these: E. coli. The protocol: as §6
The subject of assay [14] is Staphylococcus intermedius. The description is as above. It is filed as cell-based. The conditions noted are these: S. intermedius; multiple of the 1x stock solution of the tested composition. The protocol: as §6
The subject of assay [15] is Proteus mirabilis. The description is as above. It is filed as cell-based. The conditions noted are these: P. mirabilis; multiple of the 1x stock solution of the tested composition. The protocol: as §6
For assay [16], the system named is Pseudomonas aeruginosa. Described as above. Conditions: P. aeruginosa (dog isolate); multiple of the 1x stock solution of the tested composition. It is filed as cell-based. The protocol:
as §6

Assay [17] relates to Pseudomonas aeruginosa isolated from a human burn patient. The experiment in a line: MIC and MBC of Tris, EDTA, cocamidopropyl betaine and silver combinations. It is filed as cell-based. Conditions: P. aeruginosa (human burn isolate); multiple of the 1x stock solution of the tested composition.
[18] abbreviates: EDTA co-administered with neomycin in 50 mM Tris.
Setting [19] is: multiple of the 1x stock solution of the tested composition.
Where [20] appears, read: neomycin co-administered with EDTA in 50 mM Tris.

The values that follow come from patent US9173972B2, “Methods and compositions for promoting wound healing” (priority 2005, dated 2015).

Consider `NCC[C@H](O)C(=O)N[C@@H]1C[C@H](N)[C@@H](O[C@H]2O[C@H](CN)[C@@H](O)[C@H](O)[C@H]2O)[C@H](O)[C@H]1O[C@H]1O[C@H](CO)[C@@H](O)[C@H](N)[C@H]1O` [Amikacin], for which the “healing of visible ulcers” value in assay [1] is listed as “failed to heal visible ulcers”.
As for `C[C@H]1[C@H](NC(=O)/C(=N\OC(C)(C)C(=O)O)c2csc(N)n2)C(=O)N1S(=O)(=O)O` [Azactam], the “healing of visible ulcers” value in assay [1] is “failed to heal visible ulcers”.
On to `CCN1CCN(c2cc3c(cc2F)c(=O)c(C(=O)O)cn3C2CC2)CC1` [Baytril], for which the “healing of visible ulcers” value in assay [1] was “failed to heal visible ulcers”.
In the case of `O=C(O)CN(CCN(CC(=O)O)CC(=O)O)CC(=O)O` [EDTA, ethylenediaminetetraacetate], the “MIC, EDTA alone” value in assay [2] is recorded as below 0.49; in assay [3] it was 15.6. The figures for the “MBC, Co-administered” value in [4] (setting [18]), in assay [5] (setting [18]) and in assay [6] (setting [18]) were 3.9 mM, 62.5 mM and 20.0 mM, respectively. Also, the “MBC, Individually Administered” value in assay [5] (EDTA alone in 50 mM Tris) and in assay [6] (EDTA alone in 50 mM Tris) was 250 mM in each case.
In the case of `CN[C@H](CC(C)C)C(=O)N[C@H]1C(=O)N[C@@H](CC(N)=O)C(=O)N[C@H]2C(=O)N[C@H]3C(=O)N[C@H](C(=O)N[C@H](C(=O)O)c4cc(O)cc(O)c4-c4cc3ccc4O)[C@H](O)c3ccc(c(Cl)c3)Oc3cc2cc(c3O[C@@H]2O[C@H](CO)[C@@H](O)[C@H](O)[C@H]2O[C@H]2C[C@](C)(N)[C@H](O)[C@H](C)O2)Oc2ccc(cc2Cl)[C@H]1O` [Va, vancomycin], the Antibiotic resistance profile result is given as “R” in [7], “R” in [8] and “S” in assay [9].
As to cocamidopropyl betaine, the MBC in [10] is 0.001x; in assay [11], 0.003x; in assay [12] it was 0.003x; in assay [13], 50% of stock solution; in assay [13] (setting [19]), 0.5x; in [14], 0.001x. The MBC in assay [15], in assay [16] and in assay [17] was 0.5x each time. In addition, the MIC was 0.001x in assay [10]; 0.001x in [11]; 0.001x in assay [12]; 25% of stock solution in assay [13]; 0.25x in [13] (setting [19]); 0.001x in assay [14]. Also, the MIC in assay [15], in [16] and in [17] was 0.25x each time.
Take gentamicin [GM]: the Antibiotic resistance profile entry in assay [7] is “I”; in assay [8], “R”; in assay [9] it was “S”.
neomycin: the Antibiotic resistance profile result in assay [7], in [8] and in assay [9] was “R” each time. Moreover, the “MBC, Co-administered” value came out at 1560 µg/mL in [4] (setting [20]), 6250 µg/mL in [5] (setting [20]) and 40 µg/mL in assay [6] (setting [20]). In addition, the results for the “MBC, Individually Administered” value in [5] (neomycin alone in 50 mM Tris) and in [6] (neomycin alone in 50 mM Tris) were 25000 µg/mL and 5000 µg/mL, respectively.
On to oxacillin/methicillin, for which the Antibiotic resistance profile result in assay [7], in assay [8] and in assay [9] was “R” throughout.
